Data taken from patent publication US20140234212A1, “Targeted Buccal Delivery of Agents” (Massachusetts Institute of Technology, priority 2013, published 2014).
pIC50: −log10 of the molar value. Where two headings read alike, the source gives them in different places.

Tests used:
[1] = assay type: in vitro ADME, pig; conditions: not told
Description: FITC labeled chitosan NPs were used.
b) Ethanol (100% Ethanol diluted with 50% PBS) c) 2-Dimethylaminopropionic acid dodecyl ester (DDAIP) (“DDAIP”) (2 g/100 ml diluted in PBS) d) Ethanol+DDAIP (100% Ethanol diluted with 4 g/100 ml of DDAIP to achieve the same final working concentration of Ethanol and DDAIP as used in (b) and (c) respectively. e) TDCA (100 mM diluted in PBS)
Fresh pig tongue was obtained from the Butcher shop at Cambridge. The middle portion of the tongue was selected for these studies. 5 designated sections were chosen on this portion and 0.75 mL of each of these PEs were applied at each of these sections, followed by the addition of the wafers (25 mg each) with additional 0.75 mL of PEs on top of the wafers. The incubation was done in the dark at RT for 1 hour. The tongue was then washed with water and all the wafers were removed from their designated sections. The respective sections were individually cut and embedded into an OCT for sectioning using a microtome. 50 microns slices were cut from each of these sections and 2 slices were placed on slides. The slides were kept submerged in water for 3 hours to remove any bound OCT as it interferes with the image quality. Following that, each of the slides from different sections were mounted with cover slips using a DAPI containing mounting media and imaged using a fluorescence microscope. Images were taken at 4×, 10× and 20× in both FITC and DAPI channels. In addition, slices of untreated tongue were also cut and imaged to account for inherent fluorescence of the tongue. However, before conducting permeation studies, many experiments were performed to discover the optimal concentrations of PEs that would not result in significant modifications to out current wafer synthesis protocol and allow seamless integration into the wafer.

[2] = system: HCPC 1 (hamster cheek pouch carcinoma) cells; assay: MTS cell viability assay; assay type: cell-based; conditions: HCPC 1 cells, 48 h
Description: A cell viability study of 33% cisplatin-loaded nanoparticles was also conducted using the tetrazolium compound (3-(4,5-dimethylthiazol-2-yl)-5-(3-carboxymethoxy phenyl)-2-(4-sulfophenyl)-2H-tetrazolium inner salt, MTS. When incorporated by the cells, MTS is bioreduced by metabolically active cells. The amount of […] is directly proportional to the number of living cells in culture.

[3] = system: hamster cheek pouch carcinoma (HCPC1) tumors; assay: Tumor inhibition and weight change in HCPC1 allografted hamsters; assay type: in vivo, Golden Syrian hamsters; conditions: 1.15 mg/kg cisplatin equivalent; sponge topically, free cisplatin intraperitoneally
Description: Golden Syrian hamsters, 71-80 g, were anesthetized and prepared for implantation of the tumor cells. Hamster cheek pouch carcinoma (HCPC 1) cells were collected from culture, and 1×10^8 cells suspended in PBS buffer were then injected subcutaneously into the cheek pouch of a hamster. After 7 days when tumors reached around 100 mm^3 in size, hamsters were divided into 4 groups, minimizing weight and tumor size difference. […] Two doses were administrated with 3-day interval. After treatments, the animals were monitored closely, and measurements of the tumor size and body weight for each animal were performed at regular intervals using calipers without knowledge of which injection each animal had received. The tumor volume for each time point was calculated according to the formula, (length)×(width)^2/2, where the long axis is the length, the short axis is the width.

## C[C@H](CCC(=O)NCCS(=O)(=O)O)[C@H]1CC[C@H]2[C@@H]3CC[C@@H]4C[C@H](O)CC[C@]4(C)[C@H]3C[C@H](O)[C@]12C [TDCA]
[1]
  Permeation Depth: 100 microns

## N.N.[Cl][Pt][Cl] [free cisplatin, cis-diamminedichloroplatinum(ll)]
[2]
  pIC50: ~7.22
[3]
  tumor inhibition: comparable decrease in tumor size
  weight change: significant weight loss

## CCCCCCCCCCCCOC(=O)C(C)N(C)C (stereo not shown) [DDAIP, 2-Dimethylaminopropionic acid dodecyl ester]
[1]; pig, 1 hour
  Permeation Depth: 200 microns
[1]; pig, 1 hour, 2 g/100 ml
  depth permeated by the NPs: 200 μm

## CCO [Ethanol]
[1]; pig, 1 hour
  Permeation Depth: 140 microns
